# From PMC5368959, “Uricosuric targets of tranilast” (Pharmacology Research & Perspectives, 2017)
# Where two headings read alike, the source gives them in different places.
# Key:
# Assay type in all cases: cell-based
# URAT1 [1] = molecular target: T1, URAT1 (Homo sapiens, UniProt Q96S37); assay: [14C]-urate uptake by URAT1-expressing Xenopus oocytes
# T1 sequence (Q96S37 1-553): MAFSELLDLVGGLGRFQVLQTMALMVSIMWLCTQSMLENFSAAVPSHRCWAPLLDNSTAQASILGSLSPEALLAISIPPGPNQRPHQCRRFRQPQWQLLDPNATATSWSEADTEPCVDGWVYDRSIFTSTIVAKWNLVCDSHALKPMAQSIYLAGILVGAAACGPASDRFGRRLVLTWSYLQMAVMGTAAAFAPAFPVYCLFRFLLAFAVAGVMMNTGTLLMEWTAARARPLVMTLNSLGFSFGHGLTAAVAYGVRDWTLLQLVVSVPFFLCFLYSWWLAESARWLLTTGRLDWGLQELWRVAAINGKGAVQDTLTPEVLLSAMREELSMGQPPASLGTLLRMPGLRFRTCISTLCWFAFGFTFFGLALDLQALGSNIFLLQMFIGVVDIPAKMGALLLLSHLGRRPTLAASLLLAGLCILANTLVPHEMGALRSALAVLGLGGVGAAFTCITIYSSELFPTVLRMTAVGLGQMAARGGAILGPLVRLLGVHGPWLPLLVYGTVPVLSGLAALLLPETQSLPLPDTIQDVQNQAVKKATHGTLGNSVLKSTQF
# Excerpt: (§1) For uptake experiments, oocytes were washed four times with ND96 medium (pH 7.4) without pyruvate and gentamycin.
# URAT1 [2] = molecular target: T1, URAT1; assay: [14C]-nicotinate uptake by URAT1-expressing Xenopus oocytes; settings: for cis-inhibition of URAT1-mediated [14C]-nicotinate uptake by extracellular anion: data not shown
# Excerpt: as §1
# Data are mean ± S.E. with n = 12–15.
# OAT4 = molecular target: T2, OAT4 (Homo sapiens, UniProt Q9NSA0); assay: [14C]-urate uptake by OAT4-expressing Xenopus oocytes; settings: for cis-inhibition of OAT4-mediated, maleate trans-stimulated urate uptake: 10 mM extracellular anion; for trans-stimulatory effect of preloaded anion on OAT4-mediated urate uptake: preinjected 50 nL of 100 mmol/L
# T2 sequence (Q9NSA0 1-550): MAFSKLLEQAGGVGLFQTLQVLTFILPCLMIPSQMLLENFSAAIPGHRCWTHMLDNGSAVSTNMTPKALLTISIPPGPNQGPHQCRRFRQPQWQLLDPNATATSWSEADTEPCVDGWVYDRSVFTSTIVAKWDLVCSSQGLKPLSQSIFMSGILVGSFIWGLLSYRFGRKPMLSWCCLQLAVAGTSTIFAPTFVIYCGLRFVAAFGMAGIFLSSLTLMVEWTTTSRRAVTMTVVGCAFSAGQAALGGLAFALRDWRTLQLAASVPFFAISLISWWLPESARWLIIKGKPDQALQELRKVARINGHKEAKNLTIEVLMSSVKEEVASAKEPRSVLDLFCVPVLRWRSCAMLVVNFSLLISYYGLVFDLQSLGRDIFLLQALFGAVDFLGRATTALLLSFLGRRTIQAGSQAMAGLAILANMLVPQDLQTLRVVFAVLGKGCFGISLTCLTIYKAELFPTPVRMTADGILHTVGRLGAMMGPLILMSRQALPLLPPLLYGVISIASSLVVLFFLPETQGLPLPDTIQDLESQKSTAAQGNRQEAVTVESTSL
# Method: as §1
# (A) The uptake of [^14C]‐urate by OAT4‐expressing oocytes was performed in ND96 medium (pH 7.4) at ~25°C for 1 h. Na^+‐dependence was examined by replacing extracellular NaCl by KCl. […] (B) The inhibition of [^14C]‐urate uptake by OAT4 was examined in the presence of extracellular organic anions (for cis‐inhibition) or uricosuric drugs at the indicated concentrations. […] Data are mean ± S.E. with n = 12–15.
# OAT10 [3] = molecular target: T3, OAT10 (Homo sapiens, UniProt Q9Y226); assay: [14C]-urate uptake by OAT10-expressing Xenopus oocytes; settings: preloaded 50 nL of 100 mmol/L
# T3 sequence (Q9Y226 whole entry): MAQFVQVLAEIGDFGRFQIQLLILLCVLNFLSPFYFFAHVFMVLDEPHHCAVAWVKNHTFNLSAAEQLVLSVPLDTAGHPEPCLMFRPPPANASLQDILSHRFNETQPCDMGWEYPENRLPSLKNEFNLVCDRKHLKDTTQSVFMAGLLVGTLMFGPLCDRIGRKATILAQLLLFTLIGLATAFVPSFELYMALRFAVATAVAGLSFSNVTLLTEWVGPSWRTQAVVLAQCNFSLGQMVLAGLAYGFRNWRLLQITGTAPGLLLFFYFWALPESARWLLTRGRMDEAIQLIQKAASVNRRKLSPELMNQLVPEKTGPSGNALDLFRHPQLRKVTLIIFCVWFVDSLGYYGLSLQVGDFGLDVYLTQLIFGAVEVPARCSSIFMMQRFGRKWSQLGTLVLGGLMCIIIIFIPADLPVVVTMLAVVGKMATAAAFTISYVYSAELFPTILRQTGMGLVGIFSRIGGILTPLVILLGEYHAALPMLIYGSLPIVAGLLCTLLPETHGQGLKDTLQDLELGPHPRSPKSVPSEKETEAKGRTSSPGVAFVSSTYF
# Excerpt: as §1
# (A) Time course of [^14C]‐urate uptake by control and […] oocytes. […] Inset, western blot analysis of OAT10 protein expressed in oocytes. […] (C) [^14C]‐urate transport properties of OAT10: voltage sensitivity and Na+‐dependence was examined by replacing extracellular NaCl by KCl or LiCl. Existence of urate/Cl^− exchange mechanism or Cl^− dependence or cis‐inhibitory effects of extracellular Cl^− on was verified by [^14C]‐urate uptake via OAT10 in the absence of extracellular Cl^− ion (0 Cl^−). In 0 Cl^− bath, NaCl was replaced by Na‐gluconate (Na‐Gluc), KCl by K‐gluconate (K‐Gluc), MgCl2 by Mg‐gluconate, and CaCl2 by Ca‐gluconate. […] Data are mean ± S.E. with n = 12–15.
# GLUT9a = molecular target: T4, GLUT9a (Homo sapiens, UniProt Q9NRM0); assay: [14C]-urate uptake by GLUT9a-expressing Xenopus oocytes
# T4 sequence (Q9NRM0 1-540): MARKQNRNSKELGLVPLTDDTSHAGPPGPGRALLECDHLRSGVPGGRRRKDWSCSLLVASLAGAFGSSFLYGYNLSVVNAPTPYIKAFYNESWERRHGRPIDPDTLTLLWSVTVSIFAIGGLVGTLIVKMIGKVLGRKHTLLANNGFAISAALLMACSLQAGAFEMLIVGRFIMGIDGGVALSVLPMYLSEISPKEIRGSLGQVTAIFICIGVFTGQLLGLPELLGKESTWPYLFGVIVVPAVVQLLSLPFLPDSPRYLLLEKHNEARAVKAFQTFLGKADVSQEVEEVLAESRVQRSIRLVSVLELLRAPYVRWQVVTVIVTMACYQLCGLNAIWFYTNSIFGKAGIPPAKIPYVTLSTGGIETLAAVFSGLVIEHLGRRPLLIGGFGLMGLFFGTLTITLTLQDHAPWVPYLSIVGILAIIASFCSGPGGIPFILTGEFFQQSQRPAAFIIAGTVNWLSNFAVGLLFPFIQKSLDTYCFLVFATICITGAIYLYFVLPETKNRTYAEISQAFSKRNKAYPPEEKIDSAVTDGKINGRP
# Excerpt: as §1
# We sought to investigate the effect of tranilast on GLUT9a‐mediated [^14C]‐urate uptake in Xenopus laevis oocytes.
# OAT3 = molecular target: T5, OAT3 (Mus musculus, UniProt O88909); assay: [14C]-urate uptake by OAT3-expressing Xenopus oocytes
# T5 sequence (O88909 1-537): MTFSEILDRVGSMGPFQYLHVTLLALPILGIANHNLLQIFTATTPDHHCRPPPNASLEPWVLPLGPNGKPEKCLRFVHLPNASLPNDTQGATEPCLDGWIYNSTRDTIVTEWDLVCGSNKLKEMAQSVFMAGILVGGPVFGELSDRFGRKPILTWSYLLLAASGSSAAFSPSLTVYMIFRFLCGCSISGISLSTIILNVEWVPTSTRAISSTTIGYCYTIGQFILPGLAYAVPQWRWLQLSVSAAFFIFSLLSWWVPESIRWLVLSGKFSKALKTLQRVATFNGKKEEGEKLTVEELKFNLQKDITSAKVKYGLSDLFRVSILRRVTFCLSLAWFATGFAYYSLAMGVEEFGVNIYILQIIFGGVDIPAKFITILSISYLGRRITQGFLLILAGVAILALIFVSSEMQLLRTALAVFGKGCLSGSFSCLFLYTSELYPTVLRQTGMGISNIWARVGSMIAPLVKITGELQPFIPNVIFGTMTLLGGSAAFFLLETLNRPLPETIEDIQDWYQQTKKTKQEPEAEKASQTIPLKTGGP
# Method: as §1
# The uptake of [^14C]‐urate (40 μmol/L) was performed in ND96 medium (pH 7.4) at ~25°C for 1 h.
# OAT10 [4] = molecular target: T3, OAT10; assay: [14C]-nicotinate uptake by OAT10-expressing Xenopus oocytes; settings: preloaded with nonlabeled anion; ND96
# Method: as §1
# Chloride ion‐dependence was also assessed; in 0 Cl^− bath, NaCl was replaced by Na‐gluconate (Na‐Gluc), KCl by K‐gluconate (K‐Gluc), MgCl2 by Mg‐gluconate, and CaCl2 by Ca‐gluconate. […] Data are mean ± S.E. with n = 12–15.
structure (smiles),measurement,setting,value
O=C(O)C(=O)O [oxalate],cis-inhibition of URAT1-mediated urate uptake by extracellular organic anion,URAT1 [1]; 10 mM extracellular anion,not cis‐inhibited
O=c1[nH]c(=O)c2[nH]c(=O)[nH]c2[nH]1 [urate],cis-inhibition of URAT1-mediated [14C]-nicotinate uptake by extracellular anion,URAT1 [2],cis‐inhibited
O=C(O)/C=C\C(=O)O [maleate],cis-inhibition of URAT1-mediated urate uptake by extracellular organic anion,URAT1 [1]; 10 mM extracellular anion,not cis‐inhibited
same,"cis-inhibition of OAT4-mediated, maleate trans-stimulated urate uptake",OAT4,efficiently cis‐inhibited
same,trans-stimulatory effect of preloaded anion on OAT4-mediated urate uptake,OAT4,modest trans‐stimulatory effect
"O=C(O)c1cnccn1 [PZA, pyrazine carboxylate]",trans-stimulatory effect of preloaded anion on OAT10-mediated urate uptake,OAT10 [3],modest trans‐stimulatory effect
same,Effect of extracellular anion on GLUT9a activity,GLUT9a; Fig. 2C,no effect
same,cis-inhibition of URAT1-mediated [14C]-nicotinate uptake by extracellular anion,URAT1 [2],cis‐inhibited
same,"URAT1 [14C]-nicotinate uptake after preloading (trans-stimulation), fold over water-injected control oocytes",URAT1 [2]; preloaded anion,19–20 fold
same,cis-inhibition of OAT3-mediated urate uptake by extracellular anion,OAT3; 10 mmol/L extracellular anion,almost completely cis‐inhibited
same,Effect of preloaded intracellular anion on OAT3 [14C]-urate uptake (trans-stimulation),OAT3; preloaded anion,did not have any effect
same,cis-inhibition of URAT1-mediated urate uptake by extracellular organic anion,URAT1 [1]; 10 mM extracellular anion,cis‐inhibition
same,"URAT1 urate uptake after preloading with anion (trans-stimulation), fold over preloaded control oocytes",URAT1 [1]; oocytes preloaded with nonlabeled anion,70–75 fold
same,trans-stimulatory effect of preloaded anion on OAT4-mediated urate uptake,OAT4,no significant effects
same,"OAT10 [14C]-nicotinate uptake after preloading, fold over PZA-preloaded control oocytes",OAT10 [4],118–120 fold
O=C(O)CCC(=O)O [succinate],cis-inhibition of URAT1-mediated urate uptake by extracellular organic anion,URAT1 [1],not cis‐inhibited
same,"cis-inhibition of OAT4-mediated, maleate trans-stimulated urate uptake",OAT4,much less cis‐inhibition
same,trans-stimulatory effect of preloaded anion on OAT4-mediated urate uptake,OAT4,no significant effects
"CC(O)CC(=O)O (stereo not drawn) [BHB, β‐hydroxy butyrate]",trans-stimulatory effect of preloaded anion on OAT10-mediated urate uptake,OAT10 [3],modest trans‐stimulatory effect
same,trans-stimulatory effect of preloaded intracellular anion on URAT1-mediated urate uptake,URAT1 [1],did not however detect any significant trans‐stimulatory effect
same,cis-inhibition of URAT1-mediated urate uptake by extracellular organic anion,URAT1 [1]; 10 mM extracellular anion,not cis‐inhibited
CC(O)C(=O)O (stereo not shown) [lactate],trans-stimulatory effect of preloaded intracellular anion on URAT1-mediated urate uptake,URAT1 [1],did not however detect any significant trans‐stimulatory effect
same,cis-inhibition of URAT1-mediated urate uptake by extracellular organic anion,URAT1 [1]; 10 mM extracellular anion,not cis‐inhibited
O=C(O)CC(O)(CC(=O)O)C(=O)O [citrate],cis-inhibition of URAT1-mediated urate uptake by extracellular organic anion,URAT1 [1]; 10 mM extracellular anion,not cis‐inhibited
O=CO [formate],cis-inhibition of URAT1-mediated urate uptake by extracellular organic anion,URAT1 [1],not cis‐inhibited
CC(=O)C(=O)O [pyruvate],cis-inhibition of URAT1-mediated urate uptake by extracellular organic anion,URAT1 [1]; 10 mM extracellular anion,not cis‐inhibited
O=C(O)c1ccccc1O [salicylate],Effect of extracellular anion on GLUT9a activity,GLUT9a,no effect
same,cis-inhibition of URAT1-mediated [14C]-nicotinate uptake by extracellular anion,URAT1 [2],cis‐inhibited
same,cis-inhibition of URAT1-mediated urate uptake by extracellular organic anion,URAT1 [1],cis‐inhibition
"Nc1ccc(C(=O)NCC(=O)O)cc1 [PAH, para‐aminohippurate]",trans-stimulatory effect of preloaded intracellular anion on URAT1-mediated urate uptake,URAT1 [1],did not however detect any significant trans‐stimulatory effect
same,cis-inhibition of URAT1-mediated urate uptake by extracellular organic anion,URAT1 [1]; 10 mM extracellular anion,not cis‐inhibited
